Experimental data published in patent US12187742B2 (XRAD Therapeutics, Inc., priority 2018, dated 2025).
Structures can show the parent of a compound that is named as a salt.

Experiments:
ATM = ATM (Homo sapiens (Human), UniProt Q13315); test: ATM in Cell Western Assay (pKAP1 in etoposide-treated MCF-7 cells); assay type: cell-based; settings: pKAP1 in etoposide-treated MCF-7 cells
In short: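 After paraformaldehyde fixation and Triton X-100 permeabilization, immunostained plates were read by infrared scanning (ODYSSEY CLx). Compound was given as 10 doses, 3-fold dilutions from a 1 μM final top concentration.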

DNA-PK = DNA-PK (Homo sapiens (Human), UniProt P78527); test: DNA-PK Enzyme-Linked Immunosorbent Assay (phosphorylation of GST-p53 (1-101) peptide); assay type: biochemical; settings: ELISA, 20 μM ATP
In short: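 Inhibition measured by 450 nm absorbance after HRP/TMB detection of phospho-Ser15 on immobilized GST-p53 (1-101). The kinase reaction used 0.1 μg/mL DNA-PK and 20 μM ATP, 1 h at 25 °C. Ten 3-fold compound dilutions, top final concentration 100 nM.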

ATM, sequence (Q13315 whole entry): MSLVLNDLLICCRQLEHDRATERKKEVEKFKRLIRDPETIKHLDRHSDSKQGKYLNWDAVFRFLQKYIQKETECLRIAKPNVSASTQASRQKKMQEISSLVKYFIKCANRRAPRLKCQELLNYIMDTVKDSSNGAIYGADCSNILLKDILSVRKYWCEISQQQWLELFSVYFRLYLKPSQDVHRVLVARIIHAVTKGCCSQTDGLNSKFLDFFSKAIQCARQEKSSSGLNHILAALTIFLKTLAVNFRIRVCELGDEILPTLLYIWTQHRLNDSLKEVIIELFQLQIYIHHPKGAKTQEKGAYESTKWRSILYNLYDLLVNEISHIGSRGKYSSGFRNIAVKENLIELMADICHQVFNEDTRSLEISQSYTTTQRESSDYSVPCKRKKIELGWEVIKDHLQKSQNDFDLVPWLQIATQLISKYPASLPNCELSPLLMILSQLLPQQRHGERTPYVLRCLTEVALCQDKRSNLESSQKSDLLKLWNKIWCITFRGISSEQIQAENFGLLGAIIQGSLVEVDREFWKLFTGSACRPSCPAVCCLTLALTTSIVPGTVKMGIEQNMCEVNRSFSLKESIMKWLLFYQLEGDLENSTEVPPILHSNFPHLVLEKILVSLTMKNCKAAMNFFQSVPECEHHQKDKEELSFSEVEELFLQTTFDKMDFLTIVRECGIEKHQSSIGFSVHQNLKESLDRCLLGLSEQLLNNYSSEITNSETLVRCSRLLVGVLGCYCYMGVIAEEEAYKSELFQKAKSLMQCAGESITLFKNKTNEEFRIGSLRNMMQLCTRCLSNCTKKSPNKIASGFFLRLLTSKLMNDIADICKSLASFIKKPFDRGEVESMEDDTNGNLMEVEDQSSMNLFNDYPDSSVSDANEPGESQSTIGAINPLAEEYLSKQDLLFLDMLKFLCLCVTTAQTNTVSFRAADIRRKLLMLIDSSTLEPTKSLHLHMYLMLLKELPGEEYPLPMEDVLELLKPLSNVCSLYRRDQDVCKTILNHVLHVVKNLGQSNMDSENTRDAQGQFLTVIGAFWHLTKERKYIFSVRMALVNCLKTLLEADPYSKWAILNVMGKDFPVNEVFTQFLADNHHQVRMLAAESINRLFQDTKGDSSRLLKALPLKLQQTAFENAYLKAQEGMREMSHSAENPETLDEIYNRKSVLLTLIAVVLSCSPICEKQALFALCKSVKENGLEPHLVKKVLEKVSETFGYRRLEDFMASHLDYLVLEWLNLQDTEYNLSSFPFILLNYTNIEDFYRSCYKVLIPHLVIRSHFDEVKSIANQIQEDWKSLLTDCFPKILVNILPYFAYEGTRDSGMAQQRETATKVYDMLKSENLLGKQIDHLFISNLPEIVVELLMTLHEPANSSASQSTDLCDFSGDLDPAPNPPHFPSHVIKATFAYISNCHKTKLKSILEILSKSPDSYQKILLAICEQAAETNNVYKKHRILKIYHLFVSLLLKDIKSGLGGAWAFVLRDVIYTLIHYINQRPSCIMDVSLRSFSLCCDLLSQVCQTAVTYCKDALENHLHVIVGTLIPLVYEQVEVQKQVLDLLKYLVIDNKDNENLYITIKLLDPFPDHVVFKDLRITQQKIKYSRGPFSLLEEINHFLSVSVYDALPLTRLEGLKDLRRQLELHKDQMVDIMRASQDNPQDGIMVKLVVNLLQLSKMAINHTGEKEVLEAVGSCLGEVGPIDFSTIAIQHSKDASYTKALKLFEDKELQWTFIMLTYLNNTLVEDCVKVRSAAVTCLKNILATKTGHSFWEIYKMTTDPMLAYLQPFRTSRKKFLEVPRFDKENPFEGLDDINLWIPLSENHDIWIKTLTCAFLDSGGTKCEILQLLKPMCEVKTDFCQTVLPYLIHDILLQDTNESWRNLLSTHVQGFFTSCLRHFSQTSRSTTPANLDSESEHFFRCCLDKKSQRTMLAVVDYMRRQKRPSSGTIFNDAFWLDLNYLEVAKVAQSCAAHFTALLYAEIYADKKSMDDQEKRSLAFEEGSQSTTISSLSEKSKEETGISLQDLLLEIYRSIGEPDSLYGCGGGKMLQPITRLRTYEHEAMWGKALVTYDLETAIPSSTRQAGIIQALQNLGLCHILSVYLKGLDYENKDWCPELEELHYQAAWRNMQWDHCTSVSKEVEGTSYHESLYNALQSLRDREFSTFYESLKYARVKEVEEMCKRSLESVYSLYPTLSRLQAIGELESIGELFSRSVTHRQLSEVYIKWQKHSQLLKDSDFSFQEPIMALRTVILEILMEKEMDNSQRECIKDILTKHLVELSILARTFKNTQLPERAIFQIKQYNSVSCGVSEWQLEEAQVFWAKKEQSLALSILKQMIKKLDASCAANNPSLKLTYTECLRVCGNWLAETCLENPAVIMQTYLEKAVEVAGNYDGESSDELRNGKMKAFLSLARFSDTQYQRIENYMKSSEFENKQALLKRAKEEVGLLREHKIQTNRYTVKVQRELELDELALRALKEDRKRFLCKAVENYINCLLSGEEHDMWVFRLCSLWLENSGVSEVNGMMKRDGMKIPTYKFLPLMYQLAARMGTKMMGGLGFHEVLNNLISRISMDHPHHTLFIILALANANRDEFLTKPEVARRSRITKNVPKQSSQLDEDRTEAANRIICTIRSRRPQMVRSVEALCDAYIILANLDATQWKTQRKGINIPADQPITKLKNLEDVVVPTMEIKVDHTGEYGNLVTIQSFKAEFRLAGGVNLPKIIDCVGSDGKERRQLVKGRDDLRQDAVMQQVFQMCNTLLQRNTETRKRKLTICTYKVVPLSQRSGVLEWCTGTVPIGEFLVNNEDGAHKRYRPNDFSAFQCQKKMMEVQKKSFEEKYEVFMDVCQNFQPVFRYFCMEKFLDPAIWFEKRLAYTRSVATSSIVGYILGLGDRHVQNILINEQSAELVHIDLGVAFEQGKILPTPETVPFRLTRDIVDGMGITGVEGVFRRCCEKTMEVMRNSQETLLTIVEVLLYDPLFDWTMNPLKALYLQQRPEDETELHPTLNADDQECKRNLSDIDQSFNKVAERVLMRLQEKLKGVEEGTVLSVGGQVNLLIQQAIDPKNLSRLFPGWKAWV

SMILES: CCOC[C@H]1C[C@]2(C1)C(=O)N(C)c1cnc3cc(F)c(-c4cnc(OCCNC(C)C)c(NS(C)(=O)=O)c4)cc3c12 [Example 406, cis-N-(5-(3-(Ethoxymethyl)-7′-fluoro-3′-methyl-2′-oxo-2′,3′-dihydrospiro[cyclobutane-1,1′-pyrrolo[2,3-c]quinolin]-8′-yl)-2-(2-(isopropylamino)ethoxy)pyridin-3-yl)methanesulfonamide]
- IC50 (ATM): 1 to 100 nM
- IC50 (DNA-PK): 0.5 to 1 nM

SMILES: CC(C)NCCOc1ncc(-c2cc3c(cc2F)ncc2c3[C@]3(C[C@H](COc4ccccc4)C3)C(=O)N2C)cc1NS(C)(=O)=O [Example 409, cis-N-(5-(7′-Fluoro-3′-methyl-2′-oxo-3-(phenoxymethyl)-2′,3′-dihydrospiro[cyclobutane-1,1′-pyrrolo[2,3-c]quinolin]-8′-yl)-2-(2-(isopropylamino)ethoxy)pyridin-3-yl)methanesulfonamide]
- IC50 (ATM): 1 to 100 nM
- IC50 (DNA-PK): < 0.5 nM

SMILES: CC(C)NCCOc1ncc(-c2cc3c(cc2F)ncc2c3[C@]3(C[C@H](COC(C)C)C3)C(=O)N2C)cc1NS(C)(=O)=O [Example 410, cis-N-(5-(7′-Fluoro-3-(isopropoxymethyl)-3′-methyl-2′-oxo-2′,3′-dihydrospiro[cyclobutane-1,1′-pyrrolo[2,3-c]quinolin]-8′-yl)-2-(2-(isopropylamino)ethoxy)pyridin-3-yl)methanesulfonamide]
- IC50 (ATM): 1 to 100 nM
- IC50 (DNA-PK): < 0.5 nM

SMILES: CC(C)NCCOc1ncc(-c2cc3c(cc2F)ncc2c3[C@]3(C[C@H](COC(C)C)C3)C(=O)N2C)cc1NS(=O)(=O)C(C)C [Example 412, cis-N-(5-(7′-Fluoro-3-(isopropoxymethyl)-3′-methyl-2′-oxo-2′,3′-dihydrospiro[cyclobutane-1,1′-pyrrolo[2,3-c]quinolin]-8′-yl)-2-(2-(isopropylamino)ethoxy)pyridin-3-yl)propane-2-sulfonamide]
- IC50 (ATM): 1 to 100 nM
- IC50 (DNA-PK): 1 to 100 nM

SMILES: CC(C)NCCOc1ncc(-c2cc3c(cc2F)ncc2c3[C@]3(C[C@H](c4ccccc4)C3)C(=O)N2C)cc1NS(C)(=O)=O [Example 414, cis-N-(5-(7′-Fluoro-3′-methyl-2′-oxo-3-phenyl-2′,3′-dihydrospiro[cyclobutane-1,1′-pyrrolo[2,3-c]quinolin]-8′-yl)-2-(2-(isopropylamino)ethoxy)pyridin-3-yl)methanesulfonamide hydrochloride]
- IC50 (ATM): 1 to 100 nM
- IC50 (DNA-PK): 1 to 100 nM

SMILES: CC(C)NCCOc1ncc(-c2cc3c(cc2F)ncc2c3[C@]3(C[C@@H](c4ccccc4)C3)C(=O)N2C)cc1NS(C)(=O)=O [Example 415, trans-N-(5-(7′-Fluoro-3′-methyl-2′-oxo-3-phenyl-2′,3′-dihydrospiro[cyclobulane-1,1′-pyrrolo[2,3-c]quinolin]-8′-yl)-2-(2-(isopropylamino)ethoxy)pyridin-3-yl)methanesulfonamide hydrochloride]
- IC50 (ATM): 1 to 100 nM
- IC50 (DNA-PK): 1 to 100 nM

SMILES: CC(C)NCCOc1ncc(-c2cc3c(cc2F)ncc2c3[C@]3(C[C@H](c4ccc(Cl)cc4)C3)C(=O)N2C)cc1NS(C)(=O)=O [Example 416, cis-N-(5-(3-(4-Chlorophenyl)-7′-fluoro-3′-methyl-2′-oxo-2′,3′-dihydrospiro[cyclobutane-1,1′-pyrrolo[2,3-c]quinolin]-8′-yl)-2-(2-(isopropylamino)ethoxy)pyridin-3-yl)methanesulfonamide]
- IC50 (ATM): 1 to 100 nM
- IC50 (DNA-PK): 1 to 100 nM

SMILES: CC(C)NCCOc1ncc(-c2cc3c(cc2F)ncc2c3[C@]3(C[C@@H](c4ccc(Cl)cc4)C3)C(=O)N2C)cc1NS(C)(=O)=O [Example 417, trans-N-(5-(3-(4-Chlorophenyl)-7′ fluoro-3′-methyl-2′-oxo-2′,3′-dihydrospiro[cyclobutane-1,1′-pyrrolo[2,3-c]quinolin]-8′-yl)-2-(2-(isopropylamino)ethoxy)pyridin-3-yl)methanesulfonamide]
- IC50 (ATM): > 100 nM
- IC50 (DNA-PK): 1 to 100 nM

SMILES: CC(C)NCCOc1ncc(-c2cc3c(cc2F)ncc2c3[C@]3(C[C@H](c4cccc(Cl)c4)C3)C(=O)N2C)cc1NS(C)(=O)=O [Example 418, cis-N-(5-(3-(3-Chlorophenyl)-7′-fluoro-3′-methyl-2′-oxo-2′,3′-dihydrospiro[cyclobutane-1,1′-pyrrolo[2,3-c]quinolin]-8′-yl)-2-(2-(isopropylamino)ethoxy)pyridin-3-yl)methanesulfonamide]
- IC50 (ATM): 1 to 100 nM
- IC50 (DNA-PK): 1 to 100 nM

SMILES: CC(C)NCCOc1ncc(-c2cc3c(cc2F)ncc2c3[C@]3(C[C@@H](c4cccc(Cl)c4)C3)C(=O)N2C)cc1NS(C)(=O)=O [Example 419, trans-N-(5-(3-(3-Chlorophenyl)-7′-fluoro-3′-methyl-2′-oxo-2′,3′-dihydrospiro[cyclobutane-1,1′-pyrrolo[2,3-c]quinolin]-8′-yl)-2-(2-(isopropylamino)ethoxy)pyridin-3-yl)methanesulfonamide]
- IC50 (ATM): > 100 nM
- IC50 (DNA-PK): 1 to 100 nM

SMILES: COc1ccc([C@H]2C[C@]3(C2)C(=O)N(C)c2cnc4cc(F)c(-c5cnc(OCCNC(C)C)c(NS(C)(=O)=O)c5)cc4c23)cc1 [Example 420, cis-N-(5-(7′-Fluoro-3-(4-methoxyphenyl)-3-methyl-2′-oxo-2′,3′-dihydrospiro[cyclobulane-1,1′-pyrrolo[2,3-c]quinolin]-8′-yl)-2-(2-(isopropylamino)ethoxy)pyridin-3-yl)methanesulfonamide hydrochloride]
- IC50 (ATM): 1 to 100 nM
- IC50 (DNA-PK): 1 to 100 nM

SMILES: COc1ccc([C@H]2C[C@@]3(C2)C(=O)N(C)c2cnc4cc(F)c(-c5cnc(OCCNC(C)C)c(NS(C)(=O)=O)c5)cc4c23)cc1 [Example 421, hydrochloride]
- IC50 (ATM): > 100 nM
- IC50 (DNA-PK): 1 to 100 nM

SMILES: CC(C)NCCOc1ncc(-c2cc3c(cc2F)ncc2c3[C@]3(C[C@@H](c4ccc(F)cc4)C3)C(=O)N2C)cc1NS(C)(=O)=O [Example 423, trans-N-(5-(7′-Fluoro-3-(4-fluorophenyl)-3′-methyl-2′-oxo-2′,3′-dihydrospiro[cyclobutane-1,1′-pyrrolo[2,3-c]quinolin]-8′-yl)-2-(2-(isopropylamino)ethoxy)pyridin-3-yl)methanesulfonamide]
- IC50 (ATM): 1 to 100 nM
- IC50 (DNA-PK): 1 to 100 nM

SMILES: CC(C)NCCOc1ncc(-c2cc3c(cc2F)ncc2c3[C@]3(C[C@H](c4cccc(F)c4)C3)C(=O)N2C)cc1NS(C)(=O)=O [Example 424, cis-N-(5-(7′-Fluoro-3-(3-fluorophenyl)-3′-methyl-2′-oxo-2′,3′-dihydrospiro[cyclobutane-1,1′-pyrrolo[2,3-c]quinolin]-8′-yl)-2-(2-(isopropylamino)ethoxy)pyridin-3-yl)methanesulfonamide]
- IC50 (ATM): 1 to 100 nM
- IC50 (DNA-PK): 1 to 100 nM

SMILES: CC(C)NCCOc1ncc(-c2cc3c(cc2F)ncc2c3[C@]3(C[C@@H](c4cccc(F)c4)C3)C(=O)N2C)cc1NS(C)(=O)=O [Example 425, trans-N-(5-(7′-Fluoro-3-(3-fluorophenyl)-3′-methyl-2′-oxo-2′,3′-dihydrospiro[cyclobutane-1,1′-pyrrolo[2,3-c]quinolin]-8′-yl)-2-(2-(isopropylamino)ethoxy)pyridin-3-yl)methanesulfonamide]
- IC50 (ATM): > 100 nM
- IC50 (DNA-PK): 1 to 100 nM

SMILES: CC(C)NCCOc1ncc(-c2cc3c(cc2F)ncc2c3[C@]3(C[C@H](c4ccccc4F)C3)C(=O)N2C)cc1NS(C)(=O)=O [Example 426, cis-N-(5-(7′-Fluoro-3-(2-fluorophenyl)-3′-methyl-2′-oxo-2′,3′-dihydrospiro[cyclobutane-1,1′-pyrrolo[2,3-c]quinolin]-8′-yl)-2-(2-(isopropylamino)ethoxy)pyridin-3-yl)methanesulfonamide]
- IC50 (ATM): 1 to 100 nM
- IC50 (DNA-PK): 1 to 100 nM
